Legend:
human CB2 receptors = human CB2 receptors (Homo sapiens (Human), UniProt P34972); experiment: human CB2 radioligand binding assay ([3H]CP 55,940 competition); conditions: HEK293 membranes, 0.5 nM [3H]CP 55,940
Procedure: HEK293 cells stably expressing human CB2 receptors were grown until a confluent monolayer was formed. Briefly, the cells were harvested and homogenized in TE buffer (50 mM Tris-HCl, 1 mM MgCl2, and 1 mM EDTA) using a polytron for 2×10 second bursts in the presence of protease inhibitors, followed by centrifugation at 45,000×g for 20 minutes. The final membrane pellet was re-homogenized in storage buffer (50 mM Tris-HCl, 1 mM MgCl2, and 1 mM EDTA and 10% sucrose) and frozen at −78° C. until used. Saturation binding reactions were initiated by the addition of membrane preparation (protein concentration of 5 μg/well for human CB2) into wells of a deep well plate containing [^3H]CP 55,940 (120 Ci/mmol, a nonselective CB agonist commercially available from Tocris) in assay buffer (50 mM Tris, 2.5 mM EDTA, 5 mM MgCl2, and 0.5 mg/mL fatty acid free BSA, pH 7.4). After 90 min incubation at 30° C., binding reaction was terminated by the addition of 300 μL/well of cold assay buffer followed by rapid vacuum filtration through a UniFilter-96 GF/C filter plates (pre-soaked in 1 mg/mL BSA for 2 hours). The bound activity was counted in a TopCount using Microscint-20. Saturation experiments were conducted with twelve concentrations of [^3H]CP 55,940 ranging from 0.01 to 8 nM. Competition experiments were conducted with 0.5 nM [^3H]CP 55,940 and five concentrations (0.01 nM to 10 μM) of displacing ligands. The addition of 10 μM unlabeled CP 55,940 (Tocris, Ellisville, Mo.) was used to assess nonspecific binding.

rat CB2 receptors = rat CB2 receptors (Rattus norvegicus (Rat), UniProt Q9QZN9); experiment: rat CB2 radioligand binding assay ([3H]CP 55,940 competition); conditions: HEK293 membranes, 0.5 nM [3H]CP 55,940
Chain of rat CB2 receptors (Q9QZN9 whole entry): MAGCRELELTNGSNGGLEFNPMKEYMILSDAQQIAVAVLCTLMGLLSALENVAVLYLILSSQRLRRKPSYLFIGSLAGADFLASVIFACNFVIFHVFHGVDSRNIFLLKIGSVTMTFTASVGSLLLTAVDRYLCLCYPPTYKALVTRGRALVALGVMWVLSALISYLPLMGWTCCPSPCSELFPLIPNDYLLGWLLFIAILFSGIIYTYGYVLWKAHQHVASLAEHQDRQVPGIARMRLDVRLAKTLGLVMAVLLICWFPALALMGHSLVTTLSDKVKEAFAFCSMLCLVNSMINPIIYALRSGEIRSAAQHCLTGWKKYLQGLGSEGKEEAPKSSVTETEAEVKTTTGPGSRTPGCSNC
Procedure: HEK293 cells stably expressing rat CB2 receptors were grown until a confluent monolayer was formed. Briefly, the cells were harvested and homogenized in TE buffer (50 mM Tris-HCl, 1 mM MgCl2, and 1 mM EDTA) using a polytron for 2×10 second bursts in the presence of protease inhibitors, followed by centrifugation at 45,000×g for 20 minutes. The final membrane pellet was re-homogenized in storage buffer (50 mM Tris-HCl, 1 mM MgCl2, and 1 mM EDTA and 10% sucrose) and frozen at −78° C. until used. Saturation binding reactions were initiated by the addition of membrane preparation (protein concentration of 20 μg/well for rat CB2) into wells of a deep well plate containing [^3H]CP 55,940 (120 Ci/mmol, a nonselective CB agonist commercially available from Tocris) in assay buffer (50 mM Tris, 2.5 mM EDTA, 5 mM MgCl2, and 0.5 mg/mL fatty acid free BSA, pH 7.4). After 45 min incubation at 30° C., binding reaction was terminated by the addition of 300 μl/well of cold assay buffer followed by rapid vacuum filtration through a UniFilter-96 GF/C filter plates (pre-soaked in 1 mg/mL BSA for 2 hours). The bound activity was counted in a TopCount using Microscint-20. Saturation experiments were conducted with twelve concentrations of [^3H]CP 55,940 ranging from 0.01 to 8 nM. Competition experiments were conducted with 0.5 nM [^3H]CP 55,940 and five concentrations of displacing ligands selected from the range of 0.01 nM to 10 μM. The addition of 10 μM unlabeled CP 55,940 (Tocris, Ellisville, Mo.) was used to assess nonspecific binding.

Chain of human CB2 receptors (P34972 whole entry): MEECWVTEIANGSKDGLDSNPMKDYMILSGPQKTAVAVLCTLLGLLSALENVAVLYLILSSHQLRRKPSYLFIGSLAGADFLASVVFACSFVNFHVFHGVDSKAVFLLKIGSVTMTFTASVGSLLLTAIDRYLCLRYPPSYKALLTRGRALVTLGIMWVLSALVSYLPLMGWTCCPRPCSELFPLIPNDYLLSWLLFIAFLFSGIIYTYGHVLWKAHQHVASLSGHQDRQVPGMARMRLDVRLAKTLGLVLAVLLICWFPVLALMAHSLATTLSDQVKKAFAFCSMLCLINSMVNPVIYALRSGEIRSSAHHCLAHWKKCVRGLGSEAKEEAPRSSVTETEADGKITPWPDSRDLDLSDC

Row | SMILES | Ki (human CB2 receptors) | Ki (rat CB2 receptors)
1 | CC(C)(C)c1cn(CCC(F)(F)F)/c(=N/C(=O)c2cc(C#N)ccc2OC2CCC2)s1 [Example 17, N-[(2Z)-5-tert-butyl-3-(3,3,3-trifluoropropyl)-1,3-thiazol-2(3H)-ylidene]-5-cyano-2-(cyclobutyloxy)benzamide] | 0.053 µM | 0.0011 µM
2 | CC(C)Cn1cc(C(C)(C)C)s/c1=N\C(=O)c1cc(C#N)ccc1OC1CCC1 [Example 16, N-[(2Z)-5-tert-butyl-3-isobutyl-1,3-thiazol-2(3H)-ylidene]-5-cyano-2-(cyclobutyloxy)benzamide] | 0.096 µM | 0.0052 µM
3 | CC(C)Cn1cc(C(C)(C)C)s/c1=N\C(=O)c1cc(C(F)(F)F)ccc1OCCn1ccnc1 [Example 6, N-[(2Z)-5-tert-butyl-3-isobutyl-1,3-thiazol-2(3H)-ylidene]-2-[2-(1H-imidazol-1-yl)ethoxy]-5-(trifluoromethyl)benzamide] | 0.096 µM | 0.039 µM
4 | CC(C)(O)COc1ccc(C(F)(F)F)cc1C(=O)/N=c1\sc2ccncc2n1CC1CCC1 [Example 26, N-[(2Z)-3-(cyclobutylmethyl)[1,3]thiazolo[4,5-c]pyridin-2(3H)-ylidene]-2-(2-hydroxy-2-methylpropoxy)-5-(trifluoromethyl)benzamide] | 0.0025 µM | 0.0074 µM
5 | CCCCn1cc(C(C)(C)C)s/c1=N\C(=O)c1cc(C(F)(F)F)ccc1ONC(C)(C)C [Example 23, 2-[(tert-butylamino)oxy]-N-[(2Z)-3-butyl-5-tert-butyl-1,3-thiazol-2(3H)-ylidene]-5-(trifluoromethyl)benzamide] | 0.0067 µM | 0.00095 µM
6 | CCCCn1/c(=N/C(=O)c2cc(C(F)(F)F)ccc2OCCC(C)(C)O)sc2ccncc21 [Example 20, N-[(2Z)-3-butyl[1,3]thiazolo[4,5-c]pyridin-2(3H)-ylidene]-2-(3-hydroxy-3-methylbutoxy)-5-(trifluoromethyl)benzamide] | 0.035 µM | 0.048 µM
7 | C#CCCn1cc(C(C)(C)C)s/c1=N\C(=O)c1cc(C(F)(F)F)ccc1ONC(C)(C)C [Example 30, 2-[(tert-butylamino)oxy]-N-[(2Z)-5-tert-butyl-3-but-3-ynyl-1,3-thiazol-2(3H)-ylidene]-5-(trifluoromethyl)benzamide] | 0.015 µM | 0.00075 µM
8 | CCCCn1/c(=N/C(=O)c2cc(C(F)(F)F)ccc2ONC(C)(C)C)sc2ccncc21 [Example 22, 2-[(tert-butylamino)oxy]-N-[(2Z)-3-butyl[1,3]thiazolo[4,5-c]pyridin-2(3H)-ylidene]-5-(trifluoromethyl)benzamide] | 0.062 µM | 0.073 µM
9 | Cc1s/c(=N\C(=O)c2cc(C(F)(F)F)ccc2OC[C@@H]2CCCN2C)n(CC2CC2)c1C [Example 24, N-[(2Z)-3-(cyclopropylmethyl)-4,5-dimethyl-1,3-thiazol-2(3H)-ylidene]-2-{[(2S)-1-methylpyrrolidin-2-yl]methoxy}-5-(trifluoromethyl)benzamide] | 0.03 µM | 0.035 µM
10 | C=C=CCn1cc(C(C)(C)C)s/c1=N\C(=O)c1cc(C(F)(F)F)ccc1ONC(C)(C)C [Example 31, N-[(2Z)-3-buta-2,3-dienyl-5-tert-butyl-1,3-thiazol-2(3H)-ylidene]-2-[(tert-butylamino)oxy]-5-(trifluoromethyl)benzamide] | 0.017 µM | 0.0017 µM
11 | CCCCn1/c(=N/C(=O)c2cc(C(F)(F)F)ccc2OC[C@H](C)O)sc2ncccc21 [Example 36, N-[(2Z)-1-butyl[1,3]thiazolo[5,4-b]pyridin-2(1H)-ylidene]-2-{[(2S)-2-hydroxypropyl]oxy}-5-(trifluoromethyl)benzamide] | 0.0014 µM | 0.0021 µM
12 | CCCCn1/c(=N/C(=O)c2cc(C(F)(F)F)ccc2OC[C@@H](C)O)sc2ccncc21 [Example 28, N-[(2Z)-3-butyl[1,3]thiazolo[4,5-c]pyridin-2(3H)-ylidene]-2-{[(2R)-2-hydroxypropyl]oxy}-5-(trifluoromethyl)benzamide] | 0.075 µM | 0.063 µM
13 | CC(C)(O)COc1ccc(C(F)(F)F)cc1C(=O)/N=c1\sc2ccncc2n1CCCC(F)(F)F [Example 27, 2-(2-hydroxy-2-methylpropoxy)-N-[(2Z)-3-(4,4,4-trifluorobutyl)[1,3]thiazolo[4,5-c]pyridin-2(3H)-ylidene]-5-(trifluoromethyl)benzamide] | 0.0084 µM | 0.01 µM
14 | CC(C)Cn1cc(C(C)(C)C)s/c1=N\C(=O)c1cc(C(F)(F)F)ccc1O[C@H]1CCN(C)C1 [Example 13, N-[(2Z)-5-tert-butyl-3-isobutyl-1,3-thiazol-2(3H)-ylidene]-2-{[(3S)-1-methylpyrrolidin-3-yl]oxy}-5-(trifluoromethyl)benzamide] | 0.111 µM | 0.081 µM
15 | CCCCn1/c(=N/C(=O)c2cc(C(F)(F)F)ccc2OCC(C)(C)O)sc2ncccc21 [Example 35, N-[(2Z)-1-butyl[1,3]thiazolo[5,4-b]pyridin-2(1H)-ylidene]-2-(2-hydroxy-2-methylpropoxy)-5-(trifluoromethyl)benzamide] | 0.015 µM | 0.028 µM
16 | CCCCn1cc(C(C)(C)C)s/c1=N\C(=O)c1cc(C(F)(F)F)ccc1NNC(=O)c1cccnc1 [Example 37, N-[(2Z)-3-butyl-5-tert-butyl-1,3-thiazol-2(3H)-ylidene]-2-[2-(pyridin-3-ylcarbonyl)hydrazino]-5-(trifluoromethyl)benzamide] | 0.0016 µM | 0.00077 µM
17 | CC(C)Cn1cc(C(C)(C)C)s/c1=N\C(=O)c1cc(Cl)ccc1OC1CC1 [Example 15, N-[(2Z)-5-tert-butyl-3-isobutyl-1,3-thiazol-2(3H)-ylidene]-5-chloro-2-(cyclopropyloxy)benzamide] | 0.0099 µM | 0.0011 µM
18 | CCCCn1/c(=N/C(=O)c2cc(C(F)(F)F)ccc2OC[C@@H]2CCCN2C)sc2ccncc21 [Example 33, N-[(2Z)-3-butyl[1,3]thiazolo[4,5-c]pyridin-2(3H)-ylidene]-2-{[(2S)-1-methylpyrrolidin-2-yl]methoxy}-5-(trifluoromethyl)benzamide] | 0.034 µM | 0.035 µM
19 | CCCCn1c(C(=O)OC)c(C(C)C)s/c1=N\C(=O)c1cc(C(F)(F)F)ccc1ONC(C)(C)C [Example 34] | 0.129 µM | 0.048 µM
20 | CCCCn1cc(C(C)(C)C)s/c1=N\C(=O)c1cc(C(F)(F)F)ccc1OCC(C)(C)O [Example 32, N-[(2Z)-3-butyl-5-tert-butyl-1,3-thiazol-2(3H)-ylidene]-2-(2-hydroxy-2-methylpropoxy)-5-(trifluoromethyl)benzamide] | 0.00082 µM | 0.0012 µM
21 | CCCCn1cc(C(C)(C)C)s/c1=N\C(=O)c1cc(C(F)(F)F)ccc1NNC(=O)c1ccncc1 [Example 38, N-[(2Z)-3-butyl-5-tert-butyl-1,3-thiazol-2(3H)-ylidene]-2-(2-isonicotinoylhydrazino)-5-(trifluoromethyl)benzamide] | 0.0011 µM | 0.0023 µM
22 | CC(C)Cn1cc(C(C)(C)C)s/c1=N\C(=O)c1ccccc1OC[C@@H]1CCCN1C [Example 10, N-[(2Z)-5-tert-butyl-3-isobutyl-1,3-thiazol-2(3H)-ylidene]-2-{[(2S)-1-methylpyrrolidin-2-yl]methoxy}benzamide] | 0.296 µM | 0.243 µM
